The values below come from ChEMBL document CHEMBL5226296, “Reversible Lysine Specific Demethylase 1 (LSD1) Inhibitors: A Promising Wrench to Impair LSD1” (J Med Chem, 2021).

SMILES strings stand for the structures.

One may read the IC50 as the concentration that inhibits the measured activity by half. One may read the inhibition as the relative decrease from the control value, in per cent. As a reminder, the Ki is the dissociation constant of the complex between target and ligand, obtained from inhibition or displacement. A low value points to higher affinity.

Data set [1] has as its target T1, Amine oxidase [flavin-containing] A (Homo sapiens, UniProt P21397).
T1 sequence (P21397 whole entry): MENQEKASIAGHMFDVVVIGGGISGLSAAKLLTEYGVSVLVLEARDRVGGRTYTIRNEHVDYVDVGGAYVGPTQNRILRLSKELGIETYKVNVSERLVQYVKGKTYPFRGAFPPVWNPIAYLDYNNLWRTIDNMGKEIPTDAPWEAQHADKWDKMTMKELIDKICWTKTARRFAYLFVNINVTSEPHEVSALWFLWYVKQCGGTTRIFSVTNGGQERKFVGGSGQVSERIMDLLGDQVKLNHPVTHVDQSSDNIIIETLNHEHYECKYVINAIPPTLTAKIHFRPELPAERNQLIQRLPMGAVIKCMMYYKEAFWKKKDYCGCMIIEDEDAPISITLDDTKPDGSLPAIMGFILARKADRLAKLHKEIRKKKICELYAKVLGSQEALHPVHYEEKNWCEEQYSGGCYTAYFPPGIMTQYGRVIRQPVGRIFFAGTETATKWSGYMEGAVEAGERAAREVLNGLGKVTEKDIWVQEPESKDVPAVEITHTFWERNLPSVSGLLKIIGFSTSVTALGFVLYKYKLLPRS
The data set can be described thus: Inhibition of recombinant MAO-A (unknown origin) by Spectrometric analysis.

The target in data set [2] is T2, Amine oxidase [flavin-containing] B (Homo sapiens, UniProt P27338).
T2 sequence (P27338 whole entry): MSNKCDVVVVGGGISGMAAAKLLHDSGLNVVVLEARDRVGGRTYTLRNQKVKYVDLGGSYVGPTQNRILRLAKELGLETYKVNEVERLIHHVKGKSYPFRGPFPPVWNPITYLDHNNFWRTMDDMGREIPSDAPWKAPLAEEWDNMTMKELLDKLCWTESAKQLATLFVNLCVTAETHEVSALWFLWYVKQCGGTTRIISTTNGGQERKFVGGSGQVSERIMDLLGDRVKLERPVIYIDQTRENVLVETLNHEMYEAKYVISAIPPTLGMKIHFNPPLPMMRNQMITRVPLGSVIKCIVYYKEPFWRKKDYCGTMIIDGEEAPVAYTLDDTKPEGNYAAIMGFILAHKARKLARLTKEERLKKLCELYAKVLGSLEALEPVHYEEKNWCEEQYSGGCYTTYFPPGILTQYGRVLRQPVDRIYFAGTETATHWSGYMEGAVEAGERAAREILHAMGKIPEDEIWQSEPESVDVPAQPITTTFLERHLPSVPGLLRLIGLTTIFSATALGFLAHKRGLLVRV
The data set can be described thus: Inhibition of recombinant MAO-B (unknown origin) by Spectrometric analysis.

Data set [3] addresses T2, Amine oxidase [flavin-containing] B. The data set can be described thus: Inhibition of recombinant MAO-B (unknown origin) by MAO-Glo assay.
Data set [4] concerns the target T1, Amine oxidase [flavin-containing] A. The experiment in a line: Inhibition of recombinant MAO-A (unknown origin) by MAO-Glo assay.
The target in data set [5] is T3, MAO-A (Homo sapiens, UniProt P21397).
T3 sequence (P21397 whole entry): T1 sequence (P21397 whole entry)
The experiment in a line: Inhibition of recombinant MAO-A (unknown origin) at 1 uM incubated for 15 mins followed by luciferin substrate addition and measured after 60 mins by Promega-Glo analysis. To be noted: probe luciferin substrate, time 75 min.

Data set [6] has as its system Raji. The experiment in a line: Antiproliferative activity against human Raji cells assessed as reduction in cell viability incubated for 6 days by MTS assay. The following applies: 144 h. The format is functional, cell-based. Background: Tetrazolium assays rely on reduction of a dye to a coloured formazan, in cell work by metabolically active cells.
Data set [7] concerns the target T4, Lysine-specific histone demethylase 1A (Homo sapiens, UniProt O60341). The experiment in a line: Inhibition of LSD1 (unknown origin) using H3K4me2 peptide as substrate at 1 uM incubated for 30 mins by Amplex Red reagent based fluorescence analysis.
The subject of data set [8] is K562. The experiment in a line: Antiproliferative activity against human K562 cells assessed as reduction in cell viability incubated for 6 days by MTS assay. The format is functional, cell-based. To be noted: K562, 144 h.
The subject of data set [9] is U-937. The experiment in a line: Antiproliferative activity against human U-937 cells assessed as reduction in cell viability incubated for 6 days by MTS assay. To be noted: U-937, 144 h. The format is functional, cell-based.
Data set [10] deals with OCI-AML-3. The data set can be described thus: Antiproliferative activity against human OCI-AML-3 cells assessed as reduction in cell viability incubated for 6 days by MTS assay. The format is functional, cell-based. To be noted: OCI-AML-3, 144 h.
For data set [11], the system named is THP-1. The data set can be described thus: Antiproliferative activity against human THP-1 cells assessed as reduction in cell viability incubated for 6 days by MTS assay. The format is functional, cell-based. To be noted: THP-1, 144 h.
The target of data set [12] is T5, MAO-B (Homo sapiens, UniProt P27338).
T5 sequence (P27338 whole entry): T2 sequence (P27338 whole entry)
The data set can be described thus: Inhibition of recombinant MAO-B (unknown origin) at 1 uM incubated for 15 mins followed by luciferin substrate addition and measured after 60 mins by Promega-Glo analysis. The following applies: probe luciferin substrate, time 75 min.

In data set [13] the target is T4, Lysine-specific histone demethylase 1A. The data set can be described thus: Inhibition of LSD1 (unknown origin).
For data set [14] the target is unchanged. The experiment in a line: Inhibition of human GST-tagged LSD1 demethylase activity using H3K4 peptide as substrate by MALDI-TOF analysis.
Data set [15] has the same target. The data set can be described thus: Inhibition of human LSD1 (172 to 833 residues) expressed in Escherichia coli Rosetta 2 strain using H3K4me1 (1 to 21 residues) as substrate by Amplex Red reagent based fluorescence assay.
For data set [16] the target is unchanged. The data set can be described thus: Inhibition of LSD1 (unknown origin) using methylated histone H3K4 peptide as substrate by fluorescence analysis.
The target in data set [17] is T5, MAO-B. The experiment in a line: Inhibition of recombinant MAO-B (unknown origin) at 1 uM by MAO-GloTM assay.
For data set [18], the target named is T4, Lysine-specific histone demethylase 1A. The data set can be described thus: Inhibition of LSD1 (unknown origin) expressed in Escherichia coli BL21 (DE) using H3K4me2 peptide as substrate incubated for 30 mins by Amplex Red reagent based fluorescence analysis.
Data set [19] addresses T3, MAO-A. The experiment in a line: Inhibition of recombinant MAO-A (unknown origin) at 1 uM by MAO-GloTM assay.
For data set [20], the system named is MDA-MB-231. The data set can be described thus: Antiproliferative activity against human MDA-MB-231 cells assessed as reduction in cell viability incubated for 48 hrs by MTT assay. To be noted: MDA-MB-231, 48 h. The format is functional, cell-based.
For data set [21], the target named is T4, Lysine-specific histone demethylase 1A. The data set can be described thus: Inhibition of LSD1 (unknown origin) by fluorescence based microplate reader analysis.
Data set [22] shares this target. The data set can be described thus: Inhibition of LSD1 (unknown origin) by fluorescence analysis.
Data set [23] in a line: Cytotoxicity against human GES1 cells assessed as reduction in cell viability incubated for 72 hrs by MTT assay. The format is toxicity, cell-based.
In data set [24] the test system is MGC-803. The data set can be described thus: Antiproliferative activity against human MGC-803 cells assessed as reduction in cell viability incubated for 72 hrs by MTT assay. The class given is functional, cell-based.
In data set [25] the target is T4, Lysine-specific histone demethylase 1A. The data set can be described thus: Inhibition of recombinant LSD1 (unknown origin).

With `Cc1ccc(S(=O)(=O)Nc2cccc(C(=O)NCCc3ccc(O)cc3)c2)cc1`, the IC50 in data set [1] came to 109 µM; in data set [2], 344 µM.

On to `CC(C)(C)OC(=O)N1CCN(C(=S)SCC(=O)Nc2ccc(C(=O)/C=C/c3ccccc3F)cc2)CC1`, for which the IC50 in data set [3] and in [4] was above 20 µM throughout.

As for `C#CCSc1nc(Sc2nnnn2-c2ccccc2)c2nnn(Cc3ccccc3Cl)c2n1`, the inhibition at 1.25 h, 1 µM in data set [5] and in [12] was below 10% throughout. Besides, the IC50 in [6] stood at 1.4 µM; in data set [8] it was 1.3 µM; in data set [9], 1.22 µM; in data set [10], 1.79 µM; in data set [11] it was 0.45 µM. The inhibition in data set [7] came out at 95.6%.

With `COc1cc(CNC(=O)CCCC/C=C/C(C)C)ccc1O` [CAPSAICIN], the IC50 in data set [13] was found to be 0.6 µM.

`N=C(N)c1ccc(C(=O)N2CCN(C(=O)c3cc(CN4CCN(C(=N)N)CC4)cc([N+](=O)[O-])c3)CC2)cc1` displayed an IC50 in [14] of 10.5 µM.

`CSCC[C@@H]1NC(=O)[C@@H](NC(=O)[C@H](CCCNC(=N)N)NC(=O)[C@H](C)N)CCCCNC(=O)CC[C@@H](C(=O)N[C@@H](CCC(=O)O)C(=O)N[C@@H](C)C(=O)N[C@@H](CCCNC(=N)N)C(=O)N[C@@H](CCCCN)C(=O)N[C@@H](CO)C(=O)N[C@H](C(=O)O)[C@@H](C)O)NC1=O` displayed a Ki in [15] of 2.3 µM.

As to `CSCCc1nc(-c2cccc(N)c2)oc1C`, in data set [16], the IC50 was found to be 16.1 µM.

With `COc1cc2c(cc1OC)-c1cc3ccc4c(c3c[n+]1CC2)OCO4`, the inhibition at 1 µM in [17] and in [19] was below 30% in each case. This compound yielded an IC50 in [18] of 0.14 µM.

`COC(=O)c1cc(CN2CCN(C(=N)N)CC2)cc(C(=O)N2CCN(C(=O)c3ccc(C(=N)N)cc3)CC2)c1`: in data set [14], the IC50 was 5.27 µM.

For `COc1c(O[C@H]2O[C@@H](C(=O)O)[C@H](O)[C@@H](O)[C@@H]2O)cc(O)c2c(=O)cc(-c3ccccc3)oc12`, the values for the IC50 in data set [20] and in data set [21] were 19.4 µM and 2.98 µM, respectively.

For the compound `COc1c(O)cc2oc3cc(O)c(CC=C(C)C)c(O)c3c(=O)c2c1CC=C(C)C` [MANGOSTIN], the results for the IC50 in [20] and in [22] were 12.8 µM and 2.81 µM, respectively.

For `COc1ccc(-c2coc3cc(O)cc(O)c3c2=O)cc1` [BIOCHANIN], in data set [23], the IC50 at 72 h is above 32 µM. In addition, the IC50 in [24] is 2.95 µM.

With `COCc1cccc(NC(=O)c2cc3ccccc3n2C)c1COc1ccc(OC2CCNCC2)cc1`, the IC50 in [1] was found to be 71 µM; in [2], 138 µM.

As for `Cc1ccc(S(=O)(=O)Nc2cccc(C(=O)NCCc3ccc([N+](=O)[O-])cc3)c2)cc1`, the IC50 in data set [1] was found to be 90 µM; in data set [2], 226 µM.

For the compound `O=C(NCCc1ccc([N+](=O)[O-])cc1)c1cccc(NS(=O)(=O)c2ccccc2)c1`, the IC50 in data set [1] came out at 63.9 µM; in [2] it was 298 µM.

For the compound `C=CC(=O)Nc1cc(Nc2nccc(-c3cn(C)c4ccccc34)n2)c(OC)cc1N(C)CCN(C)C` [OSIMERTINIB], the IC50 in data set [25] was 3.98 µM.
